PubChem BioAssay AID248 (DTP/NCI, 2004)
Where “and” joins values, the source holds several entries; their conditions need not be identical. Equal entries are not always repeated. Inconclusive results and toxic doses are left out.

Test system: L1210 leukemia ip in BDF1 mice, survival T/C
Test: NCI In Vivo Anticancer Drug Screen. Data for tumor model L1210 Leukemia (intraperitoneal) in B6D2F1 (BDF1) mice
Settings: endpoint: mean survival time, higher = longer survival
Summary of the method: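 Value reflects the ratio of survival in compound-treated mice to survival in vehicle-treated controls, with both groups carrying the same transplanted tumor.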

[1] = dose: 100.0 mg/kg/injection, schedule: Q01DX009 (ip), vehicle: Klucel (hydroxypropylcellulose) (HPC)
[2] = dose: 200.0 mg/kg/injection, schedule: Q01DX009 (ip), vehicle: Klucel (hydroxypropylcellulose) (HPC)
[3] = dose: 400.0 mg/kg/injection, schedule: Q01DX009 (ip), vehicle: Klucel (hydroxypropylcellulose) (HPC)
[4] = dose: 100.0 mg/kg/injection, schedule: Q01DX001 (ip), vehicle: saline
[5] = dose: 200.0 mg/kg/injection, schedule: Q01DX001 (ip), vehicle: saline
[6] = dose: 100.0 mg/kg/injection, schedule: Q04DX003 (ip), vehicle: Klucel (hydroxypropylcellulose) (HPC)
[7] = dose: 200.0 mg/kg/injection, schedule: Q04DX003 (ip), vehicle: Klucel (hydroxypropylcellulose) (HPC)
[8] = dose: 400.0 mg/kg/injection, schedule: Q04DX003 (ip), vehicle: Klucel (hydroxypropylcellulose) (HPC)
[9] = dose: 100.0 mg/kg/injection, schedule: Q01DX009 (ip), vehicle: saline with Tween-80
[10] = dose: 100.0 mg/kg/injection, schedule: Q04DX003 (ip), vehicle: saline with Tween-80
[11] = dose: 200.0 mg/kg/injection, schedule: Q01DX009 (ip), vehicle: saline with Tween-80
[12] = dose: 200.0 mg/kg/injection, schedule: Q04DX003 (ip), vehicle: saline with Tween-80
[13] = dose: 400.0 mg/kg/injection, schedule: Q01DX009 (ip), vehicle: saline with Tween-80
[14] = dose: 400.0 mg/kg/injection, schedule: Q04DX003 (ip), vehicle: saline with Tween-80
[15] = dose: 100.0 mg/kg/injection, schedule: Q04DX003 (ip), vehicle: saline
[16] = dose: 200.0 mg/kg/injection, schedule: Q04DX003 (ip), vehicle: saline
[17] = dose: 400.0 mg/kg/injection, schedule: Q04DX003 (ip), vehicle: saline
[18] = dose: 25.0 mg/kg/injection, schedule: Q01DX009 (ip), vehicle: saline with Tween-80
[19] = dose: 100.0 mg/kg/injection, schedule: Q01DX001 (ip), vehicle: Klucel (hydroxypropylcellulose) (HPC)
[20] = dose: 200.0 mg/kg/injection, schedule: Q01DX001 (ip), vehicle: Klucel (hydroxypropylcellulose) (HPC)

With `O=C(Nc1ccc(Cl)c([N+](=O)[O-])c1)Nc1nc(C(F)(F)F)cc(=O)[nH]1` the T/C [1] was 98 % of control, the T/C [2] was 95 % of control and the T/C [3] was 93 % of control.
In the case of `CN(C)N=Nc1ccc(C(=O)N/N=C/c2ccccc2)cc1`, the T/C (dose: 75.0 mg/kg/injection, schedule: Q04DX003 (ip), vehicle: Klucel (hydroxypropylcellulose) (HPC)) is reported as 99 % of control, the T/C (dose: 150.0 mg/kg/injection, schedule: Q04DX003 (ip), vehicle: Klucel (hydroxypropylcellulose) (HPC)) is reported as 97 % of control and the T/C (dose: 300.0 mg/kg/injection, schedule: Q04DX003 (ip), vehicle: Klucel (hydroxypropylcellulose) (HPC)) is reported as 100 % of control.
For `COC(=O)C(CSSCC(NC(=O)c1ccccc1)C(=O)OC)NC(=O)c1ccccc1` (stereo not given), the T/C (dose: 50.0 mg/kg/injection, schedule: Q01DX001 (ip), vehicle: saline) was 98 % of control, the T/C [4] was 114 % of control and the T/C [5] was 97 % of control.
For `CC1=C(C)Cc2c(-c3ccccc3)oc(-c3ccccc3)c2C1`, the T/C (dose: 100.0 mg/kg/injection, schedule: Q01DX001 (ip), vehicle: saline with Tween-80) was 94 % of control, the T/C (dose: 200.0 mg/kg/injection, schedule: Q01DX001 (ip), vehicle: saline with Tween-80) was 90 % of control and the T/C (dose: 400.0 mg/kg/injection, schedule: Q01DX001 (ip), vehicle: saline with Tween-80) was 90 % of control.
`O=C1CC2CCCC1C2` (stereo not given) was tested, and the T/C [4] was 98 % of control, the T/C [5] was 109 % of control and the T/C (dose: 400.0 mg/kg/injection, schedule: Q01DX001 (ip), vehicle: saline) was 112 % of control.
In the case of `ClCCCN1CCCCC1CCl` (stereo not given), the T/C (dose: 3.12 mg/kg/injection, schedule: Q01DX009 (ip), vehicle: saline) is reported as 114 % of control, the T/C (dose: 6.25 mg/kg/injection, schedule: Q01DX009 (ip), vehicle: saline) is reported as 114 % of control and the T/C (dose: 6.25 mg/kg/injection, schedule: Q04DX003 (ip), vehicle: saline) is reported as 111 % of control. The T/C (dose: 12.5 mg/kg/injection, schedule: Q04DX003 (ip), vehicle: saline) was 111 % of control and the T/C (dose: 25.0 mg/kg/injection, schedule: Q04DX003 (ip), vehicle: saline) was 150 % of control.
For `COc1ccc(/C=C(\CC(=O)O)C(=O)O)cc1OC`, the T/C [1] was 92 % of control, the T/C [6] was 96 % of control and the T/C [2] was 95 % of control. For the same compound, the T/C [7] was 91 % of control, the T/C [3] was 95 % of control and the T/C [8] was 102 % of control.
For `NC(N)=NC(N)=Nc1ccc2ccccc2c1[N+](=O)[O-]`, the T/C [1] was 94 % of control, the T/C [6] was 97 % of control and the T/C [2] was 100 % of control. The T/C [7] was 100 % of control, the T/C [3] was 98 % of control and the T/C [8] was 95 % of control.
In the case of `Cc1cc(C(=O)O)c2cccc(C(F)(F)F)c2n1`, the T/C [9] is reported as 112 % of control, the T/C [10] is reported as 111 % of control and the T/C [11] is reported as 103 % of control. The T/C [12] was 114 % of control, the T/C [13] was 101 % of control and the T/C [14] was 103 % of control.
With `CC(CO)(CO)[N+](=O)[O-]` the T/C [15] was 101 % of control, the T/C [16] was 96 % of control and the T/C [17] was 93 % of control.
With `COc1c(NC(=O)Nc2ccccc2C)cccc1[N+](=O)[O-]` the T/C (dose: 6.25 mg/kg/injection, schedule: Q01DX009 (ip), vehicle: saline with Tween-80) was 100 % of control, the T/C (dose: 6.25 mg/kg/injection, schedule: Q04DX002 (ip), vehicle: saline with Tween-80) was 96 % of control and the T/C (dose: 12.5 mg/kg/injection, schedule: Q01DX009 (ip), vehicle: saline with Tween-80) was 92 % of control. For the same compound, the T/C (dose: 12.5 mg/kg/injection, schedule: Q04DX002 (ip), vehicle: saline with Tween-80) was 93 % of control, the T/C [18] was 88 % of control and the T/C (dose: 25.0 mg/kg/injection, schedule: Q04DX002 (ip), vehicle: saline with Tween-80) was 100 % of control.
`CCCCn1c(C)cc2c(c1=O)COC(=O)C2CC` (stereo not given) was tested, and the T/C (dose: 2.5 mg/kg/injection, schedule: Q04DX003 (ip), vehicle: saline) was 100 % of control, the T/C (dose: 5.0 mg/kg/injection, schedule: Q04DX003 (ip), vehicle: saline) was 100 % of control and the T/C (dose: 10.0 mg/kg/injection, schedule: Q04DX003 (ip), vehicle: saline) was 95 % of control. For the same compound, the T/C (dose: 20.0 mg/kg/injection, schedule: Q04DX003 (ip), vehicle: saline) was 97 % of control, the T/C (dose: 40.0 mg/kg/injection, schedule: Q04DX003 (ip), vehicle: saline) was 94 % of control and the T/C (dose: 80.0 mg/kg/injection, schedule: Q04DX003 (ip), vehicle: saline) was 95 % of control.
With `O=C1c2ccccc2-c2ccc(-c3ccccc3)c3ccc(CCc4ccccc4)c1c23` the T/C [10] was 100 % of control, the T/C [12] was 89 % of control and the T/C [14] was 89 % of control.
`CC1(C)C(=O)NC2(O)CCCC21` (stereo not given) was tested, and the T/C (dose: 15.0 mg/kg/injection, schedule: Q01DX001 (ip), vehicle: saline) was 101 % of control.
For `CCOC(=O)CN1CCC(C(=O)OC)CC1`, the T/C (dose: 100.0 mg/kg/injection, schedule: Q01DX009 (ip), vehicle: saline) was 96 % of control, the T/C [15] was 112 % of control and the T/C (dose: 200.0 mg/kg/injection, schedule: Q01DX009 (ip), vehicle: saline) was 98 % of control. For the same compound, the T/C [16] was 124 % of control, the T/C (dose: 400.0 mg/kg/injection, schedule: Q01DX009 (ip), vehicle: saline) was 112 % of control and the T/C [17] was 96 % of control.
In the case of `Nc1ncnc2c1c(-c1ncn[nH]1)cn2C1OC(CO)C(O)C1O` (stereo not given), the T/C (dose: 0.09 mg/kg/injection, schedule: Q01DX009 (ip), vehicle: saline) is reported as 119 % of control, the T/C (dose: 0.19 mg/kg/injection, schedule: Q01DX009 (ip), vehicle: saline) is reported as 119 % of control and the T/C (dose: 0.39 mg/kg/injection, schedule: Q01DX005 (ip), vehicle: saline) is reported as 119 % of control.
`COC(=O)c1ccc(Cl)cc1OCC(=O)Nc1ccccc1` was tested, and the T/C [19] was 97 % of control, the T/C [20] was 103 % of control and the T/C (dose: 400.0 mg/kg/injection, schedule: Q01DX001 (ip), vehicle: Klucel (hydroxypropylcellulose) (HPC)) was 93 % of control.
In the case of `CCCCCCCCCCC(S(=O)(=O)CC)S(=O)(=O)CC`, the T/C [19] is reported as 97 % of control and the T/C [20] is reported as 94 % of control.
In the case of `CC(c1ccccc1)N(N=O)C(=O)c1ccc2ccccc2c1` (stereo not given), the T/C (dose: 17.0 mg/kg/injection, schedule: Q04DX002 (ip), vehicle: saline) is reported as 94 % of control, the T/C (dose: 33.0 mg/kg/injection, schedule: Q04DX002 (ip), vehicle: saline) is reported as 105 % of control and the T/C (dose: 66.0 mg/kg/injection, schedule: Q04DX002 (ip), vehicle: saline) is reported as 97 % of control.
`CC(=O)NCC(S)c1ccc(Cl)cc1` (stereo not given) was tested, and the T/C [9] was 103 % of control, the T/C [10] was 112 % of control and the T/C [11] was 103 % of control. The T/C [12] was 93 % of control, the T/C [13] was 103 % of control and the T/C [14] was 88 % of control.
For `Clc1ccccc1Nc1ccnc(SCc2ccccc2)n1`, the T/C (dose: 25.0 mg/kg/injection, schedule: Q01DX001 (ip), vehicle: DMSO) was 93 % of control, the T/C (dose: 25.0 mg/kg/injection, schedule: Q04DX003 (ip), vehicle: DMSO) was 96 % of control and the T/C (dose: 50.0 mg/kg/injection, schedule: Q01DX001 (ip), vehicle: DMSO) was 100 % of control. For the same compound, the T/C (dose: 50.0 mg/kg/injection, schedule: Q04DX003 (ip), vehicle: DMSO) was 95 % of control, the T/C (dose: 100.0 mg/kg/injection, schedule: Q01DX001 (ip), vehicle: DMSO) was 88 % of control and 92 % of control and the T/C (dose: 100.0 mg/kg/injection, schedule: Q04DX003 (ip), vehicle: DMSO) was 93 % of control.
`O=C(COc1ccccc1)N/N=C/c1cccc([N+](=O)[O-])c1` was tested, and the T/C [18] was 92 % of control, the T/C (dose: 50.0 mg/kg/injection, schedule: Q01DX009 (ip), vehicle: saline with Tween-80) was 86 % of control and the T/C [9] was 86 % of control.
In the case of `Cc1ccc(C)c(Cl)c1Cl`, the T/C (dose: 75.0 mg/kg/injection, schedule: Q01DX009 (ip), vehicle: saline sonified) is reported as 98 % of control, the T/C [15] is reported as 103 % of control and the T/C (dose: 150.0 mg/kg/injection, schedule: Q01DX009 (ip), vehicle: saline sonified) is reported as 103 % of control. The T/C [16] was 108 % of control, the T/C (dose: 300.0 mg/kg/injection, schedule: Q01DX009 (ip), vehicle: saline sonified) was 99 % of control and the T/C [17] was 103 % of control.
